# Source: patent publication US20260295053A1, “COMPOUNDS FOR DEGRADATION AND INHIBITION OF KRAS (G12D) PROTEIN” (Shenzhen Ionova Life Science Co., Ltd., priority 2023, published 2026)
# How the values were obtained:
# KRAS (G12D) = target: T1, KRAS (G12D) (Homo sapiens, UniProt P01116, G12D); assay: KRAS (G12D) cellular degradation assay in AsPC-1 cells; format: cell-based; conditions: 24 hours, antibody fluorescence (Odyssey CLX), DC50 half-maximal degradation concentration
# T1 construct: in-cell western with KRAS G12D antibody after 24 h
# How it was run: (§1)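 Degradation: 22,000 cells/well grown to ~90% confluency, 24 h compound, fixed/permeabilised, anti-KRAS G12D + β-actin antibodies, near-IR fluorescence, DC50. Proliferation: 3,500 cells/well overnight, 6 d compound, CellTiter Glo luminescence, IC50. Dosing […]–1.5 nM final, 1:3 steps.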
# AsPC-1 cells = assay: AsPC-1 cell proliferation assay (CellTiter Glo); format: cell-based; conditions: Homo sapiens, ASPC1, 144 h, 6 days
# How it was run: as §1
# T1 sequence (P01116 1-188 isoform P01116-2 G12D): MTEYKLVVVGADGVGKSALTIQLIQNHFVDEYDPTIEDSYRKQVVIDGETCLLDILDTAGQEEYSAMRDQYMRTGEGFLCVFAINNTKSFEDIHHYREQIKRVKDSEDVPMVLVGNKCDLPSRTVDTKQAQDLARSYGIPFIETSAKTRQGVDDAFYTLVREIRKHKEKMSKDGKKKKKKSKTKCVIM
compound,measurement,setting,value
"CO[C@@H](C)COc1nc(N2C[C@@H]3C[C@H]2CN3)c2cc(C3CC3)c(-c3c(C)c(F)cc4[nH]ncc34)c(OCc3ccc(-c4cn([C@H](C(=O)N5C[C@H](O)C[C@H]5C(=O)N[C@H](C#Cc5nn(C)c6ccccc56)CO)C(C)C)nn4)cc3)c2n1 [Example 71, (2S,4R)-1-((2S)-2-(4-(4-(((4-((1S,4S)-2,5-diazabicyclo[2.2.1]heptan-2-yl)-6-cyclopropyl-7-(6-fluoro-5-methyl-1H-indazol-4-yl)-2-((S)-2-methoxypropoxy)quinazolin-8-yl)oxy)methyl)phenyl)-1H-1,2,3-triazol-1-yl)-3-methylbutanoyl)-4-hydroxy-N—((R)-1-hydroxy-4-(1-methyl-1H-indazol-3-yl)but-3-yn-2-yl)pyrrolidine-2-carboxamide]",DC50,KRAS (G12D),< 10 nM
same,IC50,AsPC-1 cells,< 10 nM
"Cc1ncsc1-c1ccc([C@@H](NC(=O)[C@@H]2C[C@@H](O)CN2C(=O)[C@H](C(C)C)n2cc(-c3ccc(COc4c(-c5c(C)c(F)cc6[nH]ncc56)c(C5CC5)cc5c(N6C[C@@H]7C[C@H]6CN7)nc(OC6CCOCC6)nc45)cc3)nn2)[C@H](C)O)cc1 [Example 72, (2S,4R)-1-((2S)-2-(4-(4-(((4-((1S,4S)-2,5-diazabicyclo[2.2.1]heptan-2-yl)-6-cyclopropyl-7-(6-fluoro-5-methyl-1H-indazol-4-yl)-2-((tetrahydro-2H-pyran-4-yl)oxy)quinazolin-8-yl)oxy)methyl)phenyl)-1H-1,2,3-triazol-1-yl)-3-methylbutanoyl)-4-hydroxy-N-((1R,2S)-2-hydroxy-1-(4-(4-methylthiazol-5-yl)phenyl)propyl)pyrrolidine-2-carboxamide]",DC50,KRAS (G12D),< 10 nM
same,IC50,AsPC-1 cells,< 10 nM
"CCn1nccc1-c1ccc([C@@H](NC(=O)[C@@H]2C[C@@H](O)CN2C(=O)[C@H](C(C)C)n2cc(-c3ccc(COc4c(-c5c(C)c(F)cc6[nH]ncc56)c(C5CC5)cc5c(N6C[C@@H]7C[C@H]6CN7)nc(OC[C@H](C)OC)nc45)cc3)nn2)[C@@H](C)O)cc1 [Example 73, (2S,4R)-1-((2S)-2-(4-(4-(((4-((1S,4S)-2,5-diazabicyclo[2.2.1]heptan-2-yl)-6-cyclopropyl-7-(6-fluoro-5-methyl-1H-indazol-4-yl)-2-((S)-2-methoxypropoxy)quinazolin-8-yl)oxy)methyl)phenyl)-1H-1,2,3-triazol-1-yl)-3-methylbutanoyl)-N-((1R,2R)-1-(4-(1-ethyl-1H-pyrazol-5-yl)phenyl)-2-hydroxypropyl)-4-hydroxypyrrolidine-2-carboxamide]",DC50,KRAS (G12D),< 10 nM
same,IC50,AsPC-1 cells,< 10 nM
"CCn1nccc1-c1ccc([C@H](CO)NC(=O)[C@@H]2C[C@@H](O)CN2C(=O)[C@H](C(C)C)n2cc(-c3ccc(COc4c(-c5c(C)c(F)cc6[nH]ncc56)c(C5CC5)cc5c(N6C[C@@H]7C[C@H]6CN7)nc(O[C@H]6C[C@H](OC)C6)nc45)cc3)nn2)cc1 [Example 74, (2S,4R)-1-((2S)-2-(4-(4-(((4-((1S,4S)-2,5-diazabicyclo[2.2.1]heptan-2-yl)-6-cyclopropyl-7-(6-fluoro-5-methyl-1H-indazol-4-yl)-2-((1r,3S)-3-methoxycyclobutoxy)quinazolin-8-yl)oxy)methyl)phenyl)-1H-1,2,3-triazol-1-yl)-3-methylbutanoyl)-N—((R)-1-(4-(1-ethyl-1H-pyrazol-5-yl)phenyl)-2-hydroxyethyl)-4-hydroxypyrrolidine-2-carboxamide]",DC50,KRAS (G12D),< 10 nM
same,IC50,AsPC-1 cells,< 10 nM
"Cc1ncsc1-c1ccc([C@H](CO)NC(=O)[C@@H]2C[C@@H](O)CN2C(=O)[C@H](C(C)C)n2cc(-c3ccc(COc4c(-c5c(C)c(F)c(F)c6[nH]ncc56)c(C5CC5)cc5c(N6C[C@@H]7C[C@H]6CN7)nc(OC6CCOCC6)nc45)cc3)nn2)cc1 [Example 76, (2S,4R)-1-((2S)-2-(4-(4-(((4-((1S,4S)-2,5-diazabicyclo[2.2.1]heptan-2-yl)-6-cyclopropyl-7-(6,7-difluoro-5-methyl-1H-indazol-4-yl)-2-((tetrahydro-2H-pyran-4-yl)oxy)quinazolin-8-yl)oxy)methyl)phenyl)-1H-1,2,3-triazol-1-yl)-3-methylbutanoyl)-4-hydroxy-N—((R)-2-hydroxy-1-(4-(4-methylthiazol-5-yl)phenyl)ethyl)pyrrolidine-2-carboxamide]",DC50,KRAS (G12D),< 10 nM
same,IC50,AsPC-1 cells,< 10 nM
"CO[C@@H](C)COc1nc(N2C[C@@H]3C[C@H]2CN3)c2cc(C3CC3)c(-c3c(C)c(F)cc4[nH]ncc34)c(OCc3ccc(-c4cn([C@H](C(=O)N5C[C@H](O)C[C@H]5C(=O)N[C@H](C#Cc5cccc(F)c5)CO)C(C)C)nn4)cc3)c2n1 [Example 77, (2S,4R)-1-((2S)-2-(4-(4-(((4-((1S,4S)-2,5-diazabicyclo[2.2.1]heptan-2-yl)-6-cyclopropyl-7-(6-fluoro-5-methyl-1H-indazol-4-yl)-2-((S)-2-methoxypropoxy)quinazolin-8-yl)oxy)methyl)phenyl)-1H-1,2,3-triazol-1-yl)-3-methylbutanoyl)-N—((R)-4-(3-fluorophenyl)-1-hydroxybut-3-yn-2-yl)-4-hydroxypyrrolidine-2-carboxamide]",DC50,KRAS (G12D),< 10 nM
same,IC50,AsPC-1 cells,< 10 nM
"CO[C@@H](C)COc1nc(N2C[C@@H]3C[C@H]2CN3)c2cc(C3CC3)c(-c3c(C)c(F)cc4[nH]ncc34)c(OCc3ccc(-c4cn([C@H](C(=O)N5C[C@H](O)C[C@H]5C(=O)N[C@H](C#Cc5cccc(Cl)c5F)CO)C(C)C)nn4)cc3)c2n1 [Example 78, (2S,4R)-1-((2S)-2-(4-(4-(((4-((1S,4S)-2,5-diazabicyclo[2.2.1]heptan-2-yl)-6-cyclopropyl-7-(6-fluoro-5-methyl-1H-indazol-4-yl)-2-((S)-2-methoxypropoxy)quinazolin-8-yl)oxy)methyl)phenyl)-1H-1,2,3-triazol-1-yl)-3-methylbutanoyl)-N—((R)-4-(3-chloro-2-fluorophenyl)-1-hydroxybut-3-yn-2-yl)-4-hydroxypyrrolidine-2-carboxamide]",DC50,KRAS (G12D),10 to 100 nM
same,IC50,AsPC-1 cells,< 10 nM
"Cc1ncsc1-c1ccc([C@H](CO)NC(=O)[C@@H]2C[C@@H](O)CN2C(=O)[C@H](C(C)C)n2cc(-c3ccc(COc4c(-c5c(C)c(F)cc6[nH]ncc56)c(C5CC5)cc5c(N6C[C@@H]7C[C@H]6CN7)nc(OCC6(C(F)F)CC6)nc45)cc3)nn2)cc1 [Example 79, (2S,4R)-1-((2S)-2-(4-(4-(((4-((1S,4S)-2,5-diazabicyclo[2.2.1]heptan-2-yl)-6-cyclopropyl-2-((1-(difluoromethyl)cyclopropyl)methoxy)-7-(6-fluoro-5-methyl-1H-indazol-4-yl)quinazolin-8-yl)oxy)methyl)phenyl)-1H-1,2,3-triazol-1-yl)-3-methylbutanoyl)-4-hydroxy-N—((R)-2-hydroxy-1-(4-(4-methylthiazol-5-yl)phenyl)ethyl)pyrrolidine-2-carboxamide]",DC50,KRAS (G12D),< 10 nM
same,IC50,AsPC-1 cells,< 10 nM
CO[C@@H](C)COc1nc(N2C[C@@H]3C[C@H]2CN3)c2cc(C3CC3)c(-c3c(C)c(F)cc4[nH]ncc34)c(OCc3ccc(-c4cn([C@H](C(=O)N5C[C@H](O)C[C@H]5C(=O)N[C@H](C#Cc5cccc6scnc56)CO)C(C)C)nn4)cc3)c2n1 [Example 80],DC50,KRAS (G12D),10 to 100 nM
same,IC50,AsPC-1 cells,10 to 100 nM
"CCn1nccc1C12CC(CNC(=O)[C@@H]3C[C@@H](O)CN3C(=O)[C@H](C(C)C)n3cc(-c4ccc(COc5c(-c6c(C)c(F)cc7[nH]ncc67)c(C6CC6)cc6c(N7C[C@@H]8C[C@H]7CN8)nc(OC[C@H](C)OC)nc56)cc4)nn3)(C1)C2 [Example 81, (2S,4R)-1-((2S)-2-(4-(4-(((4-((1S,4S)-2,5-diazabicyclo[2.2.1]heptan-2-yl)-6-cyclopropyl-7-(6-fluoro-5-methyl-1H-indazol-4-yl)-2-((S)-2-methoxypropoxy)quinazolin-8-yl)oxy)methyl)phenyl)-1H-1,2,3-triazol-1-yl)-3-methylbutanoyl)-N-((3-(1-ethyl-1H-pyrazol-5-yl)bicyclo[1.1.1]pentan-1-yl)methyl)-4-hydroxypyrrolidine-2-carboxamide]",DC50,KRAS (G12D),10 to 100 nM
same,IC50,AsPC-1 cells,10 to 100 nM
"CO[C@@H](C)COc1nc(N2C[C@@H]3C[C@H]2CN3)c2cc(C3CC3)c(-c3c(C)c(F)cc4[nH]ncc34)c(OCc3ccc(-c4cn([C@H](C(=O)N5C[C@H](O)C[C@H]5C(=O)N[C@H](c5ccc(-c6scnc6C)cc5)[C@H](C)O)C(C)C)nn4)cc3)c2n1 [Example 82, (2S,4R)-1-((2S)-2-(4-(4-(((4-((1S,4S)-2,5-diazabicyclo[2.2.1]heptan-2-yl)-6-cyclopropyl-7-(6-fluoro-5-methyl-1H-indazol-4-yl)-2-((S)-2-methoxypropoxy)quinazolin-8-yl)oxy)methyl)phenyl)-1H-1,2,3-triazol-1-yl)-3-methylbutanoyl)-4-hydroxy-N-((1R,2S)-2-hydroxy-1-(4-(4-methylthiazol-5-yl)phenyl)propyl)pyrrolidine-2-carboxamide]",DC50,KRAS (G12D),< 10 nM
same,IC50,AsPC-1 cells,< 10 nM
"CCn1nccc1-c1ccc([C@H](CO)NC(=O)[C@@H]2C[C@@H](O)CN2C(=O)[C@H](C(C)C)n2cc(-c3ccc(COc4c(-c5c(C)c(F)cc6[nH]ncc56)c(C5CC5)cc5c(N6C[C@@H]7C[C@H]6CN7)nc(OC(COC)C(F)F)nc45)cc3)nn2)cc1 (stereo partly drawn) [Example 83, (2S,4R)-1-((2S)-2-(4-(4-(((4-((1S,4S)-2,5-diazabicyclo[2.2.1]heptan-2-yl)-6-cyclopropyl-2-((1,1-difluoro-3-methoxypropan-2-yl)oxy)-7-(6-fluoro-5-methyl-1H-indazol-4-yl)quinazolin-8-yl)oxy)methyl)phenyl)-1H-1,2,3-triazol-1-yl)-3-methylbutanoyl)-N—((R)-1-(4-(1-ethyl-1H-pyrazol-5-yl)phenyl)-2-hydroxyethyl)-4-hydroxypyrrolidine-2-carboxamide]",DC50,KRAS (G12D),< 10 nM
same,IC50,AsPC-1 cells,< 10 nM
